One test concerns the target T1, RARα (Homo sapiens, UniProt P10276).
T1 sequence (P10276 1-462): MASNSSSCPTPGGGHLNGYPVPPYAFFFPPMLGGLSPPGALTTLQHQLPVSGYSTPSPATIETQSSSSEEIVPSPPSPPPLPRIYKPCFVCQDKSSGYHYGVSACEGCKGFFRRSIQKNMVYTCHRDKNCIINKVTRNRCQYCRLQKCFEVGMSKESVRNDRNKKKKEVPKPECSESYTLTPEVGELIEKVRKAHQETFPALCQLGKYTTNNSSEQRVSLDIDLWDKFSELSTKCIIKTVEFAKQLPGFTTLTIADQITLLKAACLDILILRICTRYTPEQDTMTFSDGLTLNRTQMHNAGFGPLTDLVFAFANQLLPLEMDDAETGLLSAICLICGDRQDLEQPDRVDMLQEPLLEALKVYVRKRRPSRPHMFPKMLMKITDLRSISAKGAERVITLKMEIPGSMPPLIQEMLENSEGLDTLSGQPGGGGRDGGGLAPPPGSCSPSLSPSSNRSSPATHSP
In words: Ligand binding assay. An excerpt: (§1) Other assays described below, measure the ability of the compounds of the present invention to bind to, and/or activate various retinoid receptor subtypes. When in these assays a compound binds to a given receptor subtype and activates the transcription of a reporter gene through that subtype, then the compound is considered an agonist of that receptor subtype. […] In the below described assays the ability of the compounds to bind to RARα, RARβ, RARγ, RXRα, RXRβ and RXRΓ receptors, and the ability or inability of the compounds to activate transcription of a reporter gene through these receptor subtypes can be tested.
(§2) A holoreceptor transactivation assay and a ligand binding assay which measure the antagonist/agonist like activity of the compounds of the invention, or their ability to bind to the several retinoid receptor subtypes, respectively, are described in published PCT Application No. WO WO93/11755 (particularly on pages 30-33 and 37-41) published on Jun. 24, 1993, the specification of which is also incorporated herein by reference. A description of the holoreceptor transactivation assay is also provided below.
(§3) CV1 cells (5,000 cells/well) were transfected with an RAR reporter plasmid MTV-TREp-LUC (50 ng) along with one of the RAR expression vectors (10 ng) in an automated 96-well format by the calcium phosphate procedure of Heyman et al. Cell 68, 397-406, (1992). For RXRα and RXRγ transactivation assays, an RXR-responsive reporter plasmid CRBPII-tk-LUC (50 ng) along with the appropriate RXR expression vectors (10 ng) was used substantially as described by Heyman et al. above, and Allegretto et al. J. Biol. Chem. 268, 26625-26633. For RXRβ transactivation assays, an RXR-responsive reporter plasmid CPRE-tk-LUC ([…]) along with RXRβ expression vector ([…]) was used as described in above. These reporters contain DRI elements from human CRBPII and certain DRI elements from promoter, respectively. (see Mangelsdorf et al. The Retinoids: Biology, Chemistry and Medicine, pp 319-349, Raven Press Ltd., New York and Heyman et al., cited above) (1, 8). A β-galactosidase (50 ng) expression vector was used as an internal control in the transfections to normalize for variations in transfection efficiency. The cells were transfected in triplicate for 6 hours, followed by incubation with retinoids for 36 hours, and the extracts were assayed for luciferase and β-galactosidase activities. The detailed experimental procedure for holoreceptor transactivations has been described in Heyman et al. above, and Allegretto et al. cited above. The results obtained in this assay are expressed in EC50 numbers, as they are also in the chimeric receptor transactivation assay. The Heyman et al. Cell 68, 397-406, Allegretto et al. J. Biol. Chem. 268, 26625-26633, and Mangelsdorf et al. The Retinoids: Biology, Chemistry and Medicine, pp 319-349, Raven Press Ltd., New York, are expressly incorporated herein by reference. The results of ligand binding assay are expressed in Kd numbers. (See Cheng et al. Biochemical Pharmacology Vol. 22 pp 3099-3108, expressly incorporated herein by reference.)

The target of a further test is T2, RARβ (Homo sapiens, UniProt P10826).
T2 sequence (P10826 1-455): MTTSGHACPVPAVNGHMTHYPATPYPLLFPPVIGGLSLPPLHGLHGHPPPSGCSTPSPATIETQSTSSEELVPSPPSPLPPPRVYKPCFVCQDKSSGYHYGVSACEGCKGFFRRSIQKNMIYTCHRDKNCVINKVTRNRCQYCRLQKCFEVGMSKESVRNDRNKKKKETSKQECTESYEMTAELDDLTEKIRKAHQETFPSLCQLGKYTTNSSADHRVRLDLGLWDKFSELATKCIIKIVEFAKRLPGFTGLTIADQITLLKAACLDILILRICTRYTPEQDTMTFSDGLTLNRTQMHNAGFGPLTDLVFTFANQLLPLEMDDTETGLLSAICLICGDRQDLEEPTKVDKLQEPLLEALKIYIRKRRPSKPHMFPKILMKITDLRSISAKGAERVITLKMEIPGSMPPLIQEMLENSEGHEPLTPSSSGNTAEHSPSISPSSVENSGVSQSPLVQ
The test can be described thus: Ligand binding assay.
Source text: as §1, §2, §3

Another test has as its target T3, RARγ (Homo sapiens, UniProt P13631).
T3 sequence (P13631 1-454): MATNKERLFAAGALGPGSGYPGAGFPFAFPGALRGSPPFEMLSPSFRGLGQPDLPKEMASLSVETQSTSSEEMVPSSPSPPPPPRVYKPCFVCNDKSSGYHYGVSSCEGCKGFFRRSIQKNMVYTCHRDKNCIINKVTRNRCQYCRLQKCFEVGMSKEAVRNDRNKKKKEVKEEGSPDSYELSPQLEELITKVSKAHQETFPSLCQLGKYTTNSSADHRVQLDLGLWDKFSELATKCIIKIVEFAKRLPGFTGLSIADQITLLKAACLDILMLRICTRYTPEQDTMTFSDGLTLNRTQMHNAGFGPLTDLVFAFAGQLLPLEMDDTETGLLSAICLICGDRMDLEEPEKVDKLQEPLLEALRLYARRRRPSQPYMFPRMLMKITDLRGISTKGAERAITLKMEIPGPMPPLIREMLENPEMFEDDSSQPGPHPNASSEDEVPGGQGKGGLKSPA
In words: Ligand binding assay.
Source text: as §1, §2, §3

The subject of test [1] is ornithine decarboxylase (ODC). The test can be described thus: ODC assay: inhibition of TPA induction of ornithine decarboxylase activity. The class given is in vivo. To be noted: concentration of the test compound which causes 80% inhibition in the ODC assay; cell marked (IC80). The source says: A classic measure of retinoic acid activity involves measuring the effects of retinoic acid on ornithine decarboxylase. […] That reference discloses that ornithine decarboxylase (ODC) activity increased precedent to polyamine biosynthesis. It has been established elsewhere that increases in polyamine synthesis can be correlated or associated with cellular proliferation. Thus, if ODC activity could be inhibited, cell hyperproliferation could be modulated. Although all cases for ODC activity increases are unknown, it is known that 12-0-tetradecanoylphorbol-13-acetate (TPA) induces ODC activity. Retinoic acid inhibits this induction of ODC activity by TPA.

With `CC1(C)CC=C(S(=O)(=O)c2ccccc2)c2cc(C(=O)Oc3ccc(C(=O)O)cc3)ccc21` [Compound E27], the figures for the Kd on RARα, at RARβ and at RARγ were 551 nM, 535 nM and > 1000 nM, respectively.
Taken in the same sequence, the figures for `COCOC1CCC(C)(C)c2ccc(N=Nc3ccc(C(=O)O)cc3)cc21` (racemic) [Compound D7, (+/−) 4-[(5,5-Dimethyl-8-(methoxymethyloxy)-5,6,7,8-tetrahydronaphthalen-2-yl)azo]benzoic Acid] were > 1000 nM, 226 nM and > 1000 nM.
Taken in the same sequence, the figures for `CCO/N=C1\CCC(C)(C)c2ccc(/C=C/c3ccc(C(=O)O)cc3)cc21` [Compound A6, (E)-4-[2-(5,5-Dimethyl-5,6,-dihydro-8(7H)-anti-(O-ethyl oxime)-naphthalen-2-yl)ethenyl]-benzoic acid] were 125 nM, 36 nM and 127 nM.
In the case of `CCC(CC)=C1CCC(C)(C)c2ccc(/C=C/c3ccc(C(=O)O)cc3)cc21` [Compound A28, (E)-4-[2-(5,6-Dihydro-5,5-dimethyl-8(7H)-(pentyliden-3-yl)-naphthalen-2-yl)ethenyl]benzoic acid], the Kd on RARα stood at 4 nM; at RARβ it was 3 nM; at RARγ, 42 nM.
Take `CC1(C)CCC(=O)c2cc(/C=C/c3ccc(C(=O)O)cc3)ccc21` [Compound A2a, (E)-4-[2-(5,6,7,8-tetrahydro-5,5-dimethyl-8-oxo-2-naphthalenyl)ethenyl]-benzoic acid]: the dissociation constant (Kd) was determined as 150 nM at RARα, 219 nM at RARβ and 421 nM at RARγ.
Taken in the same sequence, the figures for `CC(C)(C)C1=CCC(C)(C)c2ccc(C(=O)Nc3ccc(C(=O)O)cc3)cc21` [Compound E80, 4-[(5,5-dimethyl-5,6-dihydro-8-(1,1-dimethylethyl)-2-naphthalenyl)carboxamido]-benzoic Acid] were 394 nM, 531 nM and 901 nM.
For the compound `CC1(C)CC=C(c2cccs2)c2ccc(C(=O)C=Cc3ccc(C(=O)O)cc3)cc21` [Compound D34, 4-[3-oxo-3-(7,8-dihydro-5-(2-thienyl)-8,8-dimethyl-2-naphthalenyl)-1-propenyl]-benzoic acid], the IC80 in test [1] is reported as 4.3 (IC80) nmols. Further, the figures for the dissociation constant Kd on RARα, on RARβ and on RARγ were 235 nM, 200 nM and 530 nM, respectively.
Regarding `CC1(C)CCC2(SCCCS2)c2cc(/C=C/c3ccc(C(=O)O)cc3)ccc21` [Compound A24], the figures for the Kd at RARα, at RARβ and on RARγ were 283 nM, 92 nM and 259 nM, respectively.
Taken in the same sequence, the figures for `CC(C)=C1CCC(C)(C)c2ccc(C(=O)Oc3ccc(C(=O)O)cc3)cc21` [Compound E14] were 36 nM, 35 nM and 455 nM.
For `CC1(C)CCC(OC2CCCCO2)c2cc(C(=O)Oc3ccc(C(=O)O)cc3)ccc21` (single isomer, unassigned) [Compound E67, 4-[5,6,7,8-tetrahydro-8(S or R)-(2′(S or R)tetrahydropyranoxy)-5,5-dimethyl-2-napthoyloxy]benzoic Acid] the same measures were 77 nM, 302 nM and 375 nM.
For `CC(C)=C1CCC(C)(C)c2ccc(C(=O)Nc3ccc(C(=O)O)cc3)cc21` [Compound E17] the same measures were 192 nM, 378 nM and > 1000 nM.
Regarding `CCO/N=C1\CCC(C)(C)c2ccc(/C(C)=C/C=C/C(C)=C/C(=O)O)cc21` [Compound C25, 7-[4,4-dimethyl-3,4-dihydro-1(2H)-anti-(O-ethyl oxime)-naphth-7-yl]3,7-dimethyl-hepta-2(E),4(E),6(E)-trienoic Acid], the dissociation constant Kd on RARα turned out to be 19 nM; on RARβ, 12 nM; at RARγ it was 42 nM.

Values taken from patent US6465663B2, “O- or S-substituted tetrahydronaphthalene derivatives having retinoid and/or retinoid antagonist-like biological activity” (Allergan, Inc., priority 1996, dated 2002).
